Values quoted from earlier work as cited in patent US10155994B2, “Methods of detecting DDR2 mutations” (QUEST DIAGNOSTICS INVESTMENTS INCORPORATED, priority 2012, dated 2018).

Conditions: current daily oral dosing; from Bradeen et al. Blood 2006

In the case of `Cc1nc(Nc2ncc(C(=O)Nc3c(C)cccc3Cl)s2)cc(N2CCN(CCO)CC2)n1` [dasatinib], the “achievable plasma trough concentration” value is given as 100 nM.
In the case of `Cc1cn(-c2cc(NC(=O)c3ccc(C)c(Nc4nccc(-c5cccnc5)n4)c3)cc(C(F)(F)F)c2)cn1` [nilotinib], the “achievable plasma trough concentration” value is listed as 2000 nM.
